PubChem BioAssay AID1919014 (Molecular Pharmacology Branch, DTP, NCI, 2023)

System: NCI-H1341 complex spheroids, percent test/control
Assay: Anticancer human tumor NCI-H1341 cell line growth inhibition [AhR];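 further: spheroids exposed to agents for seven days before readout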
Conditions: for IC50: curve of first compound; for viability, T/C: stronger effect = lower value
Text: Multicellular complex tumor spheroid response to aryl hydrocarbon receptor antagonists in combination with a variety of drugs and investigational agents in selected tumor cell lines
The current study was undertaken to assess response to aryl hydrocarbon receptor antagonists in combination with standard-of-care drugs and investigational agents in solid tumor complex spheroid models. Complex spheroids include a stromal component modeled by human endothelial cells (HUVEC) and fibroblasts modeled by human mesenchymal stem cells (MSCs). The concentration ranges selected for each drug and investigational agent were based upon clinically achievable concentrations if the clinical Cmax of the agent was known.
Compounds. The drugs and investigational agents: BAY 2416964 (NSC825713), GNF351 (NSC835774), CH-223191 (NSC835775), CPI-455 (NSC825282), aza-TdCyd (NSC777586), decitabine (NSC127716), belinostat (NSC758774), entinostat (NSC756642), pevonedistat (NSC761192), tazemetostat (NSC777109), talazoparib (NSC765396), olaparib (NSC753686), selinexor (NSC780203), nedisertib (M3814, NSC802822), bortezomib (NSC756655), venetoclax (NSC766270), doxorubicin (NSC123127), elimusertib (BAY189344, NSC800525), ceralasertib (AZD6738, NSC777638), TAK-243 (NSC785004), alisertib (NSC759677), etoposide (NSC141540), topotecan (NSC609699), eribulin (NSC707389), gemcitabine (NSC613327), carboplatin (NSC241240), cisplatin (NSC119875), and SN-38 (NSC673596) were obtained from the National Cancer Institute (NCI) Developmental Therapeutics Program Chemical Repository (32). The FDA-approved anticancer drug set is available from the Developmental Therapeutics Program at https://dtp.cancer.gov/organization/dscb/obtaining/available plates.htm. […] The stock solutions were prepared in dimethyl sulfoxide (DMSO, Sigma-Aldrich, St. Louis, MO, cat. D2650), except for the platinum compounds which were prepared in saline (Quality Biological, Gaithersburg, MD, cat. 114-055-101), at 800-fold the tested concentration and stored at -70 degrees C prior to their use. All drugs and investigational agents were tested over a range starting from a high concentration at or near the clinical Cmax and decreasing in half-log increments. If the clinical Cmax for an agent had not been determined, the highest concentration tested was 10 microM (Table 1).
Cell Culture. All cells were maintained in an incubator at 37 degrees C and 5% CO2 with 95% humidity. The PDC lines were cultured according to standard operating procedures established by the NCI PDMR (https://pdmr.cancer.gov). Briefly, all PDCs were thawed and cultured in Matrigel-coated flasks prepared with a working solution of 1X Ham's F-12 nutrient mix, without supplementation (Invitrogen, Waltham, MA, cat. 11765054), 100 U/mL penicillin-streptomycin (Invitrogen, cat. 15140122), and 2.5% Matrigel (Corning Inc., Corning, NY, cat. 354248) for the first three passages. All PDCs were cultured in complete DMEM/F-12 media containing advanced DMEM/F-12 (Invitrogen, cat. 12634028), 4.9% defined fetal bovine serum, heat inactivated (HyClone Laboratories Inc., Logan, UT, cat. SH30070.03HI), 389 ng/mL hydrocortisone (Sigma-Aldrich, cat. H4001), 9.7 ng/mL human EGF recombinant protein (Invitrogen, cat. PHG0313), 23.4 microg/mL adenine (Sigma-Aldrich, cat. A2786), 97.3 U/mL penicillin-streptomycin (Invitrogen, cat. 15140122), 1.9 mM L-glutamine (Invitrogen, cat. 25030081), and 9.7 microM Y-27632 dihydrochloride (Tocris Bioscience, Bristol, United Kingdom, cat. 1254). The PDCs were cultured in complete DMEM/F12 media without 10 microM Y-27632 dihydrochloride for at least two passages prior to the screen. The established cell lines NCI-H1341 and […] were cultured in DMEM/F-12, HEPES (Invitrogen, cat. 11330032), 5% defined fetal bovine serum (HyClone Laboratories Inc., cat. SH30070.03), ITS premix universal culture supplement [insulin (5 microg/mL), transferrin (5 microg/mL), and selenious acid (5 ng/mL)] […]

[1] = second compound 0.1 µM, first compound 0.0316 µM
[2] = second compound 0.1 µM, first compound 0.1 µM
[3] = second compound 0.1 µM, first compound 0.316 µM
[4] = second compound 0.1 µM, first compound 1 µM
[5] = second compound 0.1 µM, first compound 3.16 µM
[6] = second compound 0.1 µM, first compound 10 µM
[7] = second compound 0.316 µM, first compound 0.0316 µM
[8] = second compound 0.316 µM, first compound 0.1 µM
[9] = second compound 0.316 µM, first compound 0.316 µM
[10] = second compound 0.316 µM, first compound 1 µM
[11] = second compound 0.316 µM, first compound 3.16 µM
[12] = second compound 0.316 µM, first compound 10 µM
[13] = second compound 1 µM, first compound 0.0316 µM
[14] = second compound 1 µM, first compound 0.1 µM
[15] = second compound 1 µM, first compound 0.316 µM
[16] = second compound 1 µM, first compound 1 µM
[17] = second compound 1 µM, first compound 3.16 µM
[18] = second compound 1 µM, first compound 10 µM
[19] = second compound 3.16 µM, first compound 0.0316 µM
[20] = second compound 3.16 µM, first compound 0.1 µM
[21] = second compound 3.16 µM, first compound 0.316 µM
[22] = second compound 3.16 µM, first compound 1 µM
[23] = second compound 3.16 µM, first compound 3.16 µM
[24] = second compound 3.16 µM, first compound 10 µM
[25] = second compound 10 µM, first compound 0.0316 µM
[26] = second compound 10 µM, first compound 0.1 µM
[27] = second compound 10 µM, first compound 0.316 µM
[28] = second compound 10 µM, first compound 1 µM
[29] = second compound 10 µM, first compound 3.16 µM
[30] = second compound 10 µM, first compound 10 µM

IC50 (second compound 0.1 µM) [nM] | IC50 (second compound 0.316 µM) [nM] | IC50 (second compound 1 µM) [nM] | IC50 (second compound 3.16 µM) [nM] | IC50 (second compound 10 µM) [nM] | SMILES | viability, T/C [1] [%] | viability, T/C [2] [%] | viability, T/C [3] [%] | viability, T/C [4] [%] | viability, T/C [5] [%] | viability, T/C [6] [%] | viability, T/C [7] [%] | viability, T/C [8] [%] | viability, T/C [9] [%] | viability, T/C [13] [%] | viability, T/C [14] [%] | viability, T/C [19] [%] | viability, T/C [20] [%] | viability, T/C [25] [%] | viability, T/C [26] [%] | also measured
2370 | 2150 | 1710 | 1810 | 1240 | CC1(C)CCC(CN2CCN(c3ccc(C(=O)NS(=O)(=O)c4ccc(NCC5CCOCC5)c([N+](=O)[O-])c4)c(Oc4cnc5[nH]ccc5c4)c3)CC2)=C(c2ccc(Cl)cc2)C1 + CC(CO)NC(=O)c1cc(-c2ccc(Cl)cc2)nn(-c2cnn(C)c2)c1=O | 66.6 | 74.9 | 71.8 | 71.1 | 43 | 12.9 | 76.7 | 76.5 | 72.3 | 83.4 | 74.4 | 76.5 | 88.8 | 65.7 | 84.7 | viability, T/C [10]: 63.8%; viability, T/C [11]: 43.1%; viability, T/C [12]: 11.7%; viability, T/C [15]: 65.1%; viability, T/C [16]: 61.4%; viability, T/C [17]: 41.4%; viability, T/C [18]: 11.3%; viability, T/C [21]: 83.8%; viability, T/C [22]: 63%; viability, T/C [23]: 36.5%; viability, T/C [24]: 12.4%; viability, T/C [27]: 65.6%; viability, T/C [28]: 54.1%; viability, T/C [29]: 30.2%; viability, T/C [30]: 9.65%
< 31.6 | < 31.6 | < 31.6 | < 31.6 | < 31.6 | COc1cc(Nc2ncc3c(n2)-c2ccc(Cl)cc2C(c2c(F)cccc2OC)=NC3)ccc1C(=O)O + CC(CO)NC(=O)c1cc(-c2ccc(Cl)cc2)nn(-c2cnn(C)c2)c1=O | 39.7 | 45.7 | 37.7 | 34.2 | 28.7 | 28.6 | 50.5 | 34.5 | 35.5 | 46.4 | 44.2 | 38.4 | 35.4 | 35.6 | 39.7 | viability, T/C [10]: 38.2%; viability, T/C [11]: 29.5%; viability, T/C [12]: 27.6%; viability, T/C [15]: 37.2%; viability, T/C [16]: 37.5%; viability, T/C [17]: 33.1%; viability, T/C [18]: 26.7%; viability, T/C [21]: 34%; viability, T/C [22]: 35.8%; viability, T/C [23]: 30.6%; viability, T/C [24]: 27.6%; viability, T/C [27]: 39%; viability, T/C [28]: 29.2%; viability, T/C [29]: 27%; viability, T/C [30]: 28.2%
> 100 | > 100 | > 100 | > 100 | > 100 | Cn1ncnc1C1c2n[nH]c(=O)c3cc(F)cc(c23)NC1c1ccc(F)cc1 (stereo not given) + CC(CO)NC(=O)c1cc(-c2ccc(Cl)cc2)nn(-c2cnn(C)c2)c1=O | 83.2 | 77.6 | – | – | – | – | 91.8 | 72.3 | – | 80.5 | 73.9 | 76.2 | 65.9 | 66.1 | 69.2 | viability, T/C (second compound 0.1 µM, first compound 0.000316 µM): 79.2%; viability, T/C (second compound 0.1 µM, first compound 0.001 µM): 83.4%; viability, T/C (second compound 0.1 µM, first compound 0.00316 µM): 84%; viability, T/C (second compound 0.1 µM, first compound 0.01 µM): 73.5%; viability, T/C (second compound 0.316 µM, first compound 0.000316 µM): 85%; viability, T/C (second compound 0.316 µM, first compound 0.001 µM): 95.7%; viability, T/C (second compound 0.316 µM, first compound 0.00316 µM): 88.8%; viability, T/C (second compound 0.316 µM, first compound 0.01 µM): 76.9%; viability, T/C (second compound 1 µM, first compound 0.000316 µM): 72.5%; viability, T/C (second compound 1 µM, first compound 0.001 µM): 95.4%; viability, T/C (second compound 1 µM, first compound 0.00316 µM): 77.5%; viability, T/C (second compound 1 µM, first compound 0.01 µM): 85.7%; viability, T/C (second compound 3.16 µM, first compound 0.000316 µM): 87.5%; viability, T/C (second compound 3.16 µM, first compound 0.001 µM): 93.8%; viability, T/C (second compound 3.16 µM, first compound 0.00316 µM): 77.1%; viability, T/C (second compound 3.16 µM, first compound 0.01 µM): 62.4%; viability, T/C (second compound 10 µM, first compound 0.000316 µM): 72.4%; viability, T/C (second compound 10 µM, first compound 0.001 µM): 84.2%; viability, T/C (second compound 10 µM, first compound 0.00316 µM): 81%; viability, T/C (second compound 10 µM, first compound 0.01 µM): 65.2%
< 31.6 | < 31.6 | < 31.6 | < 31.6 | < 31.6 | NS(=O)(=O)OCC1CC(n2ccc3c(NC4CCc5ccccc54)ncnc32)CC1O (stereo not given) + CC(CO)NC(=O)c1cc(-c2ccc(Cl)cc2)nn(-c2cnn(C)c2)c1=O | 33 | 28 | 11 | 5.48 | 5.17 | 3.34 | 37.6 | 28.2 | 13.5 | 39.7 | 31.2 | 32.1 | 27.6 | 29.1 | 23.1 | viability, T/C [10]: 6.9%; viability, T/C [11]: 3.38%; viability, T/C [12]: 3.76%; viability, T/C [15]: 13.1%; viability, T/C [16]: 6.82%; viability, T/C [17]: 4.46%; viability, T/C [18]: 3.84%; viability, T/C [21]: 14.8%; viability, T/C [22]: 7.34%; viability, T/C [23]: 5.49%; viability, T/C [24]: 4.2%; viability, T/C [27]: 13.8%; viability, T/C [28]: 7.32%; viability, T/C [29]: 5.1%; viability, T/C [30]: 2.95%
